# According to PubChem BioAssay AID2060624 (Molecular Pharmacology Branch, DTP, NCI, 2025):
# Tested on: 217524-143-R1-J4-PDC spheroids with HUVEC/MSC, viability
# Test: Anticancer human tumor 217524-143-R1-J4-PDC patient-derived pancreatic carcinoma cell line growth inhibition [CLK]
# Conditions: for IC50: curve of first compound; for viability, T/C: stronger effect = lower value
# How it was run: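 Multi-cell-type spheroids combined patient-derived tumor cells with HUVEC endothelial cells and human mesenchymal stem cells. Paired agents were dosed in half-log steps down from about clinical Cmax, or from 10 microM where Cmax was unknown.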
# [1] = second compound 0.0316 µM, first compound 0.0316 µM
# [2] = second compound 0.0316 µM, first compound 0.1 µM
# [3] = second compound 0.0316 µM, first compound 0.316 µM
# [4] = second compound 0.0316 µM, first compound 1 µM
# [5] = second compound 0.0316 µM, first compound 3.16 µM
# [6] = second compound 0.0316 µM, first compound 10 µM
# [7] = second compound 0.1 µM, first compound 0.0316 µM
# [8] = second compound 0.1 µM, first compound 0.1 µM
# [9] = second compound 0.1 µM, first compound 0.316 µM
# [10] = second compound 0.1 µM, first compound 1 µM
# [11] = second compound 0.1 µM, first compound 3.16 µM
# [12] = second compound 0.1 µM, first compound 10 µM
# [13] = second compound 0.316 µM, first compound 0.0316 µM
# [14] = second compound 0.316 µM, first compound 0.1 µM
# [15] = second compound 0.316 µM, first compound 0.316 µM
# [16] = second compound 0.316 µM, first compound 1 µM
# [17] = second compound 0.316 µM, first compound 3.16 µM
# [18] = second compound 0.316 µM, first compound 10 µM
# [19] = second compound 1 µM, first compound 0.0316 µM
# [20] = second compound 1 µM, first compound 0.1 µM
# [21] = second compound 1 µM, first compound 0.316 µM
# [22] = second compound 1 µM, first compound 1 µM
# [23] = second compound 1 µM, first compound 3.16 µM
# [24] = second compound 1 µM, first compound 10 µM
# [25] = second compound 3.16 µM, first compound 0.0316 µM
# [26] = second compound 3.16 µM, first compound 0.1 µM
# [27] = second compound 3.16 µM, first compound 0.316 µM
# [28] = second compound 3.16 µM, first compound 1 µM
# [29] = second compound 3.16 µM, first compound 3.16 µM
# [30] = second compound 3.16 µM, first compound 10 µM
# [31] = second compound 10 µM, first compound 0.0316 µM
# [32] = second compound 10 µM, first compound 0.1 µM
# [33] = second compound 10 µM, first compound 0.316 µM
# [34] = second compound 10 µM, first compound 1 µM
# [35] = second compound 10 µM, first compound 3.16 µM
# [36] = second compound 10 µM, first compound 10 µM
# 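Further: spheroids exposed to agents for seven days before reading.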
# 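Wherever viability, T/C is given: 100% = DMSO vehicle control viability.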
smiles,measurement,setting,value
CC(=O)O[C@H]1C(=O)[C@@]2(C)[C@H]([C@H](OC(=O)c3ccccc3)[C@]3(O)C[C@H](OC(=O)[C@H](O)[C@@H](NC(=O)c4ccccc4)c4ccccc4)C(C)=C1C3(C)C)[C@]1(OC(C)=O)CO[C@@H]1C[C@@H]2O + CN1CCN(c2cc(C(=O)Nc3cc4cc(-c5cnn(C)c5)ccc4cn3)ccn2)CC1,IC50,second compound 0.0316 µM,< 31.6 nM
same,IC50,second compound 0.1 µM,< 31.6 nM
same,IC50,second compound 0.316 µM,< 31.6 nM
same,IC50,second compound 1 µM,< 31.6 nM
same,IC50,second compound 3.16 µM,< 31.6 nM
same,IC50,second compound 10 µM,< 31.6 nM
same,"viability, T/C",[1],14.5%
same,"viability, T/C",[2],10.6%
same,"viability, T/C",[3],10.8%
same,"viability, T/C",[4],11.5%
same,"viability, T/C",[5],12.1%
same,"viability, T/C",[6],16.4%
same,"viability, T/C",[7],11.9%
same,"viability, T/C",[8],12.1%
same,"viability, T/C",[9],9.82%
same,"viability, T/C",[10],10.7%
same,"viability, T/C",[11],10.8%
same,"viability, T/C",[12],13.2%
same,"viability, T/C",[13],11.1%
same,"viability, T/C",[14],11.3%
same,"viability, T/C",[15],10.7%
same,"viability, T/C",[16],9.41%
same,"viability, T/C",[17],11.7%
same,"viability, T/C",[18],12.3%
same,"viability, T/C",[19],1.11%
same,"viability, T/C",[20],1.3%
same,"viability, T/C",[21],1.35%
same,"viability, T/C",[22],1.2%
same,"viability, T/C",[23],2%
same,"viability, T/C",[24],1.13%
same,"viability, T/C",[25],0.88%
same,"viability, T/C",[26],0.73%
same,"viability, T/C",[27],0.55%
same,"viability, T/C",[28],0.62%
same,"viability, T/C",[29],1.1%
same,"viability, T/C",[30],0.74%
same,"viability, T/C",[31],0.12%
same,"viability, T/C",[32],0.17%
same,"viability, T/C",[33],0.16%
same,"viability, T/C",[34],0.2%
same,"viability, T/C",[35],0.34%
same,"viability, T/C",[36],0.24%
CCc1c2c(nc3ccc(O)cc13)-c1cc3c(c(=O)n1C2)COC(=O)[C@]3(O)CC + CN1CCN(c2cc(C(=O)Nc3cc4cc(-c5cnn(C)c5)ccc4cn3)ccn2)CC1,IC50,second compound 0.0316 µM,< 3.16 nM
same,IC50,second compound 0.1 µM,< 3.16 nM
same,IC50,second compound 0.316 µM,< 3.16 nM
same,IC50,second compound 1 µM,< 3.16 nM
same,IC50,second compound 3.16 µM,< 3.16 nM
same,IC50,second compound 10 µM,< 3.16 nM
same,"viability, T/C","second compound 0.0316 µM, first compound 0.00316 µM",46.2%
same,"viability, T/C","second compound 0.0316 µM, first compound 0.01 µM",34.1%
same,"viability, T/C",[1],28.7%
same,"viability, T/C",[2],25.2%
same,"viability, T/C",[3],17.5%
same,"viability, T/C",[4],6.45%
same,"viability, T/C","second compound 0.1 µM, first compound 0.00316 µM",35.9%
same,"viability, T/C","second compound 0.1 µM, first compound 0.01 µM",30.1%
same,"viability, T/C",[7],21.9%
same,"viability, T/C",[8],17.5%
same,"viability, T/C",[9],14.5%
same,"viability, T/C",[10],5.83%
same,"viability, T/C","second compound 0.316 µM, first compound 0.00316 µM",14.8%
same,"viability, T/C","second compound 0.316 µM, first compound 0.01 µM",12.7%
same,"viability, T/C",[13],10.8%
same,"viability, T/C",[14],4%
same,"viability, T/C",[15],2.32%
same,"viability, T/C",[16],1.82%
same,"viability, T/C","second compound 1 µM, first compound 0.00316 µM",1.37%
same,"viability, T/C","second compound 1 µM, first compound 0.01 µM",1.13%
same,"viability, T/C",[19],0.98%
same,"viability, T/C",[20],1.39%
same,"viability, T/C",[21],1.84%
same,"viability, T/C",[22],2.32%
same,"viability, T/C","second compound 3.16 µM, first compound 0.00316 µM",1.13%
same,"viability, T/C","second compound 3.16 µM, first compound 0.01 µM",0.69%
same,"viability, T/C",[25],1.06%
same,"viability, T/C",[26],1.74%
same,"viability, T/C",[27],1.87%
same,"viability, T/C",[28],2.05%
same,"viability, T/C","second compound 10 µM, first compound 0.00316 µM",0.09%
same,"viability, T/C","second compound 10 µM, first compound 0.01 µM",0.16%
same,"viability, T/C",[31],0.24%
same,"viability, T/C",[32],0.19%
same,"viability, T/C",[33],0.31%
same,"viability, T/C",[34],0.19%
COc1cccc2c1C(=O)c1c(O)c3c(c(O)c1C2=O)CC(O)(C(=O)CO)CC3OC1CC(N)C(O)C(C)O1 (stereo unspecified) + CN1CCN(c2cc(C(=O)Nc3cc4cc(-c5cnn(C)c5)ccc4cn3)ccn2)CC1,IC50,second compound 0.0316 µM,< 31.6 nM
same,IC50,second compound 0.1 µM,< 31.6 nM
same,IC50,second compound 0.316 µM,< 31.6 nM
same,IC50,second compound 1 µM,< 31.6 nM
same,IC50,second compound 3.16 µM,< 31.6 nM
same,IC50,second compound 10 µM,< 31.6 nM
same,"viability, T/C",[1],31.5%
same,"viability, T/C",[2],22.6%
same,"viability, T/C",[3],18.3%
same,"viability, T/C",[4],12.8%
same,"viability, T/C",[5],3.21%
same,"viability, T/C",[6],1.12%
same,"viability, T/C",[7],23.1%
same,"viability, T/C",[8],19.4%
same,"viability, T/C",[9],13.4%
same,"viability, T/C",[10],11.9%
same,"viability, T/C",[11],2.23%
same,"viability, T/C",[12],1.21%
same,"viability, T/C",[13],15.5%
same,"viability, T/C",[14],11.4%
same,"viability, T/C",[15],6.94%
same,"viability, T/C",[16],3.93%
same,"viability, T/C",[17],1.19%
same,"viability, T/C",[18],1.44%
same,"viability, T/C",[19],0.79%
same,"viability, T/C",[20],1.09%
same,"viability, T/C",[21],0.55%
same,"viability, T/C",[22],0.99%
same,"viability, T/C",[23],1.55%
same,"viability, T/C",[24],2.46%
same,"viability, T/C",[25],0.79%
same,"viability, T/C",[26],0.89%
same,"viability, T/C",[27],0.61%
same,"viability, T/C",[28],0.96%
same,"viability, T/C",[29],1.17%
same,"viability, T/C",[30],0.55%
same,"viability, T/C",[31],0.18%
same,"viability, T/C",[32],0.12%
same,"viability, T/C",[33],0.13%
same,"viability, T/C",[34],0.13%
same,"viability, T/C",[35],0.11%
same,"viability, T/C",[36],0.12%
